The target in one assay is T1, recombinant MARK4 (Homo sapiens, UniProt Q96L34).
T1 construct: made in house; host or cells: bacterial cells (Luria-Bertani broth, IPTG induction)
T1 sequence (Q96L34 1-752): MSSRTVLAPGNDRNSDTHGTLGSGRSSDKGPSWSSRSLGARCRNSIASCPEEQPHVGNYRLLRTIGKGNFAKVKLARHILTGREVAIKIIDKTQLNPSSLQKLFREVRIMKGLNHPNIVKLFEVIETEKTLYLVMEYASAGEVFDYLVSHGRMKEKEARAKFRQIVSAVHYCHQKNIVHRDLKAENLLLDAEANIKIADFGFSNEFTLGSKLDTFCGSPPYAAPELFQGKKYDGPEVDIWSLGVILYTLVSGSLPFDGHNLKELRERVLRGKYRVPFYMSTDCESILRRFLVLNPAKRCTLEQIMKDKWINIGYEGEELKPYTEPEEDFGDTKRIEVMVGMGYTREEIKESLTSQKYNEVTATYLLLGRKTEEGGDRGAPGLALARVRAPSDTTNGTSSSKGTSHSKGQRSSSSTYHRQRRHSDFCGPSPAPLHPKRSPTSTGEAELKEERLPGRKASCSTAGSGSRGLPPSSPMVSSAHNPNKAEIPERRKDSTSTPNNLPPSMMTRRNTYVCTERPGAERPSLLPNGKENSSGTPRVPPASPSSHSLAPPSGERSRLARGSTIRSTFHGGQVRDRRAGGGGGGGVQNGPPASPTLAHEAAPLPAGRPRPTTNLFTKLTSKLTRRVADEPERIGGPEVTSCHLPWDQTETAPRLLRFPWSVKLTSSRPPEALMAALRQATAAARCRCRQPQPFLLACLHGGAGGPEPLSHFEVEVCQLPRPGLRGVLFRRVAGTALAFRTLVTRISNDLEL
As to the kind of experiment: Fluorescence binding (quenching, modified Stern-Volmer). The method, then: To determine the binding affinities of the synthesized acridones with MARK4, we used fluorescence emission spectra measurements. Protein sample was excited at 280 nm and emission was measured in 300–400 nm range with increasing concentrations of each acridone derivative (0–100 µM). A significant decrease in fluorescence intensity of MARK4 with increasing concentrations of each compound was fitted in the modified Stern-Volmer equation to calculate the binding constant, Ka and the number of binding sites per protein molecule (n). All the synthesized acridones have been screened (Supplementary Fig. S6, S7 and Table S3) and those with the highest affinity have been selected (compounds 5, 7b, 7d, 7f and 7h) for further evaluation (Fig. 3). The binding constants of compound 5, 7b, 7d, 7f and 7h were estimated as 6.3 × 10^4 M^−1, 1.0 × 10^6 M^−1, 1.0 × 10^6 M^−1, 1.9 × 10^6 M^−1, and 3.1 × 10^5 M^−1, respectively (Fig. 3).
Figure 3 Fluorescence binding studies of compound 5, 7b, 7d, 7f and 7h with MARK4. (A) Fluorescence emission spectra of MARK4 (10 µM) with increasing concentrations of the respective compound (5, 7b, 7d, 7f and 7h). Excitation wavelength was fixed at 280 nm and emission was recorded in 300–400 nm range. (B) Modified Stern-Volmer plot obtained from fluorescence quenching of MARK4 by compound 5, 7b, 7d, 7f and 7h, respectively. It was used to calculate binding affinity (Ka) and number of binding sites (n).
Binding affinities of synthesized acridone derivatives with recombinant MARK4 was carried out by observing the fluorescence intensity change of emission spectrum of MARK4 by following our previously published protocol[44],[45]. Each titration of protein was performed in triplicates and the average was taken for analysis. A significant decreased in fluorescence intensity of protein with increase in the concentration of acridone derivatives were used as the criteria for deducing the binding constant (Ka) as well as number of binding sites (n) present on the protein molecule using the modified Stern-Volmer equation[46]:1 log(Fo−F)/F=logKa+nlog[L] where, Fo = Fluorescence intensity of native protein, F = Fluorescence intensity of protein in the presence of ligand, Ka = Binding constant, n = number of binding sites, L = concentration of ligand. The values for Ka and n were derived from the intercept and slope, respectively.

Assay [1] deals with phosphorylation of tau protein in SH-SY5Y cells. As to the kind of experiment: Tau-phosphorylation assay by flow cytometry. The format is cell-based, human. The note with it: IC50 dose, 24 h. The source says: To see the effect of most potential lead molecules (compound 7b, 7d and 7f) on the substrate protein (tau protein) of MARK4 enzyme inhibition activity studies are extended to a cell-based tau-phosphorylation assay. Cells were allowed to grow in the presence of IC50 dose of compound 7b, 7d and 7f for 24 hrs. Following the treatment, the phosphorylation of tau has been assessed with the help of flow cytometry.
To study the effect of selected lead molecules on the phosphorylation of tau protein (a substrate of MARK4) the SH-SY5Y cells were treated with IC50 dose of compound 7b, 7d and 7 f for 24 h and subjected to FACS based analysis as per our previously published protocols[17],[50].

Another assay relates to HepG2 cells. As to the kind of experiment: MTT cell viability assay, HepG2. It counts as cell-based. The note with it: Homo sapiens, Table S2. The method, then:
Initially, all synthesized acridone derivatives were evaluated for their cytotoxicity potential on MCF-7, HepG2 and HEK293 cell lines by MTT assay. These synthesized acridone derivatives were screened in the concentration range of 0–200 µM, for 24 and 48 h. […] It was also interesting that in the studied […] concentration range these compounds don’t show considerable cytotoxicity towards HEK293 cell lines. […] Thus, compounds 5, 7b, 7d, 7f and 7h were taken for further cell based studies such as apoptosis and reactive oxygen species (ROS) production.
To study the effect of synthesized acridone derivatives on cell viability and proliferation, a standard MTT method was carried out. Cells were plated (8000–9000/well) in a 96-well plate and incubated overnight. On the next day, cells were treated with increasing concentrations (0.1–80 μM) of synthesized acridone derivatives in a final volume of 200 µl for 48 h at 37 °C in a humidified chamber. At the end of treatment time point, 20 µl of MTT solution (from 5 mg/ml stock solution in phosphate buffer saline, pH 7.4) was added to each well and incubated further for 4–5 h at 37 °C in the CO2 incubator. After stipulated time the supernatant was aspirated and the colored formazan crystal produced as a result of MTT reduction was dissolved in 100 µl of DMSO. The absorbance (A) of colored product was then measured at 570 nm on a multiplate ELISA reader (BioRad). The percentage of viable cells was calculated and used to estimate the IC50 (50% inhibitory concentration) values for each acridone derivative. For cell proliferation studies paclitaxel has been taken as positive control.
For orientation: Formazan colour is commonly taken as a measure of viable cells.

Setting [2] is: Table S3, fluorescence binding, read-out: Binding affinity (Ka) (converted).

Experimental findings from paper PMC6368574, “Probing the Inhibition of Microtubule Affinity Regulating Kinase 4 by N-Substituted Acridones” (Scientific Reports, 2019) are described below.

What is called IC50 is the point on the concentration scale where inhibition reaches its midpoint. Lower therefore signals greater potency in that assay.

Read-outs that look alike come from different tables or passages of the source.

Consider `Cc1ccc2c(c1)c(=O)c1ccccc1n2CC(=O)NCc1ccccc1` [Compound 7b, N-benzyl-2-(2-methyl-9-oxoacridin-10(9H)-yl)acetamide], for which the Kd on recombinant MARK4 (setting [2]) was 1 µM. In addition, the “phosphorylation level of tau protein” value in assay [1] is listed as “decreases the phosphorylation level of tau protein”. In the assay with HepG2 cells, this molecule displayed an IC50 of 13.6 µM.
For the molecule `COC(=O)Cn1c2ccccc2c(=O)c2cc(C)ccc21` [Compound 5, Methyl 2-(2-methyl-9-oxoacridin-10(9H)-yl)acetate], the Kd on recombinant MARK4 (fluorescence quenching, MARK4 10 µM, excitation 280 nm, read-out: binding constant, Ka (converted)) was 15.9 µM. The molecule further yielded a half-maximal inhibitory concentration (IC50) in the assay with HepG2 cells of 16.4 µM.
Take `COc1ccc(CNC(=O)Cn2c3ccccc3c(=O)c3cc(C)ccc32)cc1` [Compound 7d, N-(4-methoxybenzyl)-2-(2-methyl-9-oxoacridin-10(9H)-yl)acetamide]: at recombinant MARK4 (setting [2]), the Kd is 1 µM. The “phosphorylation level of tau protein” value in assay [1] was “decreases the phosphorylation level of tau protein”. The same molecule returned an IC50 in the assay on HepG2 cells of 15.1 µM.
As to `COc1ccccc1NC(=O)Cn1c2ccccc2c(=O)c2cc(C)ccc21` [Compound 7h, N-(2-methoxyphenyl)-2-(2-methyl-9-oxoacridin-10(9H)-yl)acetamide], on recombinant MARK4 (setting [2]), the Kd is 3.23 µM. The molecule also registered a half-maximal inhibitory concentration (IC50) in the assay on HepG2 cells of 19 µM.
On to `Cc1ccc(NC(=O)Cn2c3ccccc3c(=O)c3cc(C)ccc32)cc1` [Compound 7f, 2-(2-Methyl-9-oxoacridin-10(9H)-yl)-N-(p-tolyl)acetamide], for which, on recombinant MARK4 (setting [2]), the Kd was 0.526 µM. The “phosphorylation level of tau protein” value in assay [1] is “decreases the phosphorylation level of tau protein”. The same molecule gave an IC50 in the assay on HepG2 cells of 15.2 µM.
